Laboratory results reported in patent publication US20130108610A1 (priority 2011, published 2013).

Legend:
aconitase = target: T1, aconitase (Saccharomyces cerevisiae, UniProt P19414); assay: Aconitase activity in lysates of treated Saccharomyces cerevisiae BY4741 cultures (Bioxytech Aconitase-340 kit); format: cell-based; details: for Aconitase Activity, % of Untreated Control: S. cerevisiae BY4741 in YPD, incubated overnight, cell lysate, negative activity reported as 0; for Aconitase inhibition (in words): culturing of cells in the presence of the material, effective = inhibition by 70% or more
T1 construct: endogenous in cells; host or cells: Saccharomyces cerevisiae strain BY4741
T1 sequence (P19414 17-778): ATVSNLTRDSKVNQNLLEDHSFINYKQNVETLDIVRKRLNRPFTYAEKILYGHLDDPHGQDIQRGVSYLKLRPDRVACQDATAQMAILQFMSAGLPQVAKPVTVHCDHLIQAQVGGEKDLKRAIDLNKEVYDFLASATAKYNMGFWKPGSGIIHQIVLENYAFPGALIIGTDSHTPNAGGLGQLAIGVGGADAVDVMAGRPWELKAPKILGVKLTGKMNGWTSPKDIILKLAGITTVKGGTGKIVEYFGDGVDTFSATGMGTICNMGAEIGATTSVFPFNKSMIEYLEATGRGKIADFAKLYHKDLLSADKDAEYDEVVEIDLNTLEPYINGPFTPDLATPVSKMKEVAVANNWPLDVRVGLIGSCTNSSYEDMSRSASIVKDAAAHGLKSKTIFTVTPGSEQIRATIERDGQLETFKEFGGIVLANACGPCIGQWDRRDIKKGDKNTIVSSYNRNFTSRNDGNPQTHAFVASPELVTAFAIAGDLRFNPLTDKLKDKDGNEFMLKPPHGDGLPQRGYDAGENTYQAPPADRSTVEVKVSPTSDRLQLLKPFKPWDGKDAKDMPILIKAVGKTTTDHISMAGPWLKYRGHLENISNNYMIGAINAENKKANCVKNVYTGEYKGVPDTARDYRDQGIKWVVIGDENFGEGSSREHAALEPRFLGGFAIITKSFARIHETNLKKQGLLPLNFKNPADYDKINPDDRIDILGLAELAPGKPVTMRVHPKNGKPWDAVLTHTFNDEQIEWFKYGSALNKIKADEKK
Experimental: Cultures of Saccharomyces cerevisiae strain BY4741 are grown in YPD (20 grams glucose, 20 grams peptone, 10 grams yeast extract per liter) broth overnight at 30°. The cultures are diluted with YPD to a total volume of 100 mls with an optical density (600 nm) of 0.1. The cultures are incubated with shaking until reaching an optical density of 0.2, whereupon the test material is added. The cultures are incubated overnight, and the cells are pelleted by centrifugation. The cell pellet is washed with 100 mM NaCl, 20 mM Tris pH 7.4 and resuspended in 5 ml of 100 mM NaCl, 20 mM Tris pH 7.4. Glass beads (0.5 mm) is added. The sample is alternately vortexed for one minute and incubated on ice for one minute, with a total of ten treatments. After centrifugation, the supernatant is collected. In a 96-well plate (UV-transparent Corning 3679 plate), 30 μl of cell lysate is mixed with 20 μl 100 mM NaCl, 20 mM Tris pH 7.4 and assayed using a Bioxytech Aconitase-340 kit (OxisResearch) according to instructions.
For the aconitase assay, samples are incubated for six minutes at 37°. The reaction rate is calculated based on the increase in optical density (340 nm) in the five-minute interval beginning one minute after the reaction started. The aconitase activity in lysates of treated samples is divided by the aconitase activity in lysates of untreated samples. If replicates were performed on samples, the reported data are a mean of the aconitase activity measurements of individual lysates of treated cells divided by the mean of the aconitase activity measurements of individual lysates of untreated cells. If the aconitase activity appears to be negative in lysates of treated cells, the value “0” is reported for aconitase activity (Table 1).

Saccharomyces = details: minimal medium; by inhibition of glutamate and lysine synthesis

SMILES	Aconitase Activity, % of Untreated Control (aconitase; 50 ppm test material)	other results
O=S(=O)([O-])[O-].[Zn+2] [Zinc Sulfate]	110%	–
On1ccccc1=S.On1ccccc1=S.[Cu] [Copper Pyrithione (CuPT), Copper Pyrithione]	–	Aconitase Activity, % of Untreated Control (aconitase; 5 ppm test material): 0%
CCCCCCCCOc1cccc(=O)n1O.NCCO [N-Hydroxy-6-octyloxypyridine-2(1H)one, ethanolamine salt]	0%	–
c1cnc2c(c1)ccc1cccnc12 [1,10-Phenanthroline]	2%	–
Oc1cccc2cccnc12 [8-Hydroxyquinoline]	15%	–
O=C(O)CN(CCN(CC(=O)O)CC(=O)O)CC(=O)O [EDTA]	36%	Aconitase inhibition (in words) (aconitase): not effective
Cc1cc(CC(C)CC(C)(C)C)n(O)c(=O)c1.NCCO (centres unmarked) [Piroctone Diamine (Octopirox), Piroctone Diamine]	0%	–
[O-]n1ccccc1=S.[O-]n1ccccc1=S.[Zn+2] [Zinc pyrithione (ZPT), zinc salt of 1-hydroxy-2-pyridinethione]	–	Aconitase Activity, % of Untreated Control (aconitase; 5 ppm test material): 0%; Aconitase inhibition (in words) (aconitase): aconitase inhibition; Growth inhibition (in words) (Saccharomyces): inhibits growth
